# Reference: patent publication US8240312B2, “Method and means for exerting a phototoxic effect of visible light on microorganisms” (Osnat Feuerstein, priority 2004, dated 2012)
# How the values were obtained:
# P. gingivalis = experiment: Bacterial survival after 20 sec blue light exposure in the presence of scavengers; assay type: cell-based, Porphyromonas gingivalis; conditions: P. gingivalis in PBS suspension, halogen lamp, 23 J/cm^2, scavengers 30 to 100 μM, relative to non-exposed control (FIG. 5C)
# Procedure: (§1) Bacteria: P. gingivalis, F. nucleatum, S. mutans, S. faecalis, P. gingivalis and F. nucleatum were grown and incubated at 37° C. in an anaerobic jar at <1% O2 and 9-13% CO2. S. mutans and S. faecalis were grown and incubated under aerobic conditions at 37° C. All the strains were sub-cultured twice before exposure to light. The bacterial concentration following 24 h incubation was standardized by dilution with sterile broth to about 5×10^6 cfu.
# (§2) Determination of bacterial survival: Following exposure of the bacteria in suspension to light, samples were diluted and applied to the agar plates. Survival of these bacteria were determined, as well as of the duplicates of single bacteria on agar, by counting cfu following incubation. P. gingivalis and F. nucleatum were cultured under anaerobic conditions and S. mutans and S. faecalis under aerobic conditions at 37° C. until bacterial colonies were visible (1-5 days). The percentage of surviving bacteria was calculated in relation to the control non-exposed samples under similar experimental conditions. Biofilm inhibition in the triplicates bacterial lawn samples was defined as a halo without colony growth appearing in the light-exposed areas. All experiments in which the results of the exposed samples differed from those of the control were repeated at least twice. […]
# F. nucleatum = experiment: as above; assay type: cell-based, Fusobacterium nucleatum; conditions: F. nucleatum in PBS suspension, halogen lamp, 23 J/cm^2, scavengers 30 to 100 μM, relative to non-exposed control (FIG. 5D)
# Procedure: as §1, §2
structure (smiles),measurement,setting,value
"CNC(=S)NC [DMTU, dimethylthiourea]",percent survival of bacteria,P. gingivalis,48%
same,percent survival of bacteria,F. nucleatum,63%
